The text below walks through data of patent publication US11491192B2, “Treatment and prevention of pathogenic bacterial overgrowth using butyrate-producing bacteria” (THE CLEVELAND CLINIC FOUNDATION, priority 2018, dated 2022).

The test system of experiment [1] is F. prausnitzii. Nature of the experiment: Brucella broth dilution MIC of common antibiotics. The format is cell-based, Faecalibacterium prausnitzii. Particulars: unit assumed. Here is the method: This strain was chosen because it was isolated from human feces, and based on its ability to hydrolyze PS, yield butyrate, and utilize lactate. Belenguer et al., Applied Environmental Microbiology, 72:3593-3599 (2006) Bacteria was grown in conditions and medium as recommended by ATCC, briefly at 37° C. in anaerobic gas biological mix of 80% nitrogen, 10% carbon dioxide, 10% hydrogen, ATCC pre-reduced chopped meat broth (ATCC 1703). Overnight culture of FP was lyophilized on […] system and reconstituted in pre-reduced sterile phosphate buffered saline (PBS) just prior to treatment. Brucella broth dilution MIC of common antibiotics for FP and CD strains were determined using standard methods for susceptibility testing of anaerobic bacteria (Table 1).

In experiment [2] the test system is C. difficile. Nature of the experiment: Brucella broth dilution MIC of common antibiotics. The format is cell-based, Clostridium difficile. Particulars: unit assumed. A general note: Dilution methods test growth across graded concentrations, often in twofold steps.
Experiment [3] relates to sodium-coupled butyrate transporter, butyrate receptor, tight junction proteins and NHE3. Particulars: supplementation during broad spectrum antibiotic treatment in mice; Cresci et al. 2013; cited from earlier work.
Where [4] appears, read: Brucella broth dilution, FP strain used in this study (ATCC 27766).
The mark [5] stands for this setting: Brucella broth dilution, CD strain used in this study (VA17).

A value given as a limit tells only on which side of the number the result lay.

As to `CO[C@@]1(NC(=O)Cc2cccs2)C(=O)N2C(C(=O)O)=C(COC(N)=O)CS[C@@H]21` [Cefoxitin], in experiment [1] (setting [4]), the F. prausnitzii MIC was under 2 µg/mL. Besides, the C. difficile MIC in experiment [2] (setting [5]) amounted to 250 µg/mL.

With `CCC[C@@H]1C[C@@H](C(=O)N[C@@H]([C@H]2O[C@H](SC)[C@H](O)[C@@H](O)[C@H]2O)[C@H](C)Cl)N(C)C1` [Clindamycin], in experiment [2] (setting [5]), the C. difficile MIC is 500 µg/mL.

Consider `Cc1ncc([N+](=O)[O-])n1CCO` [Metronidazole], for which the F. prausnitzii MIC in experiment [1] (setting [4]) is under 2 µg/mL. The C. difficile MIC in experiment [2] (setting [5]) is under 2 µg/mL.

On to `CN[C@H](CC(C)C)C(=O)N[C@H]1C(=O)N[C@@H](CC(N)=O)C(=O)N[C@H]2C(=O)N[C@H]3C(=O)N[C@H](C(=O)N[C@H](C(=O)O)c4cc(O)cc(O)c4-c4cc3ccc4O)[C@H](O)c3ccc(c(Cl)c3)Oc3cc2cc(c3O[C@@H]2O[C@H](CO)[C@@H](O)[C@H](O)[C@H]2O[C@H]2C[C@](C)(N)[C@H](O)[C@H](C)O2)Oc2ccc(cc2Cl)[C@H]1O` [Vancomycin], for which the F. prausnitzii MIC in experiment [1] was under 2 µg/mL. The C. difficile MIC in experiment [2] is under 2 µg/mL.

`CCCC(=O)OCC(COC(=O)CCC)OC(=O)CCC` [tributyrin]: in experiment [3], the “intestinal losses of sodium-coupled butyrate transporter, butyrate receptor, tight junction proteins and NHE3” value was “protects against intestinal losses”.

In the case of Piperacillin/Tazaba, in experiment [1] (setting [4]), the F. prausnitzii MIC was determined as 8 µg/mL. In addition, in experiment [2] (setting [5]), the C. difficile MIC turned out to be 15.6 µg/mL.
